Measurements from patent publication US6737383B1, “Herbicidal oxadiazolidines” (priority 1999, dated 2004).

Tests used:
bedstraw = assay: Test B pre/postemergence bedstraw; type: in vivo, Galium aparine; conditions: for Plant response rating, Bedstraw: scale of 0 to 10 where 0 is no effect and 10 is complete control
How it was run: (§1)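 Test chemicals in a non-phytotoxic solvent mixture with surfactant were sprayed preemergence onto planted seeds and postemergence onto plants 2 to 18 cm tall (1- to 4-leaf stage). After twelve to sixteen days in a greenhouse, injury was visually rated against untreated controls from 0 (no effect) to 10 (complete control).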

blackgrass = assay: Test B pre/postemergence blackgrass; type: in vivo, Alopecurus myosuroides; conditions: for Plant response rating, Blackgrass: scale of 0 to 10 where 0 is no effect and 10 is complete control
How it was run: as §1

surinam grass = assay: Test B pre/postemergence surinam grass; type: in vivo, Brachiaria decumbens
How it was run: as §1

cocklebur = assay: Test B pre/postemergence cocklebur; type: in vivo, Xanthium strumarium; conditions: for Plant response rating, Cocklebur: scale of 0 to 10 where 0 is no effect and 10 is complete control
How it was run: as §1

corn = assay: Test B pre/postemergence corn; type: in vivo, Zea mays; conditions: for Plant response rating, Corn: scale of 0 to 10 where 0 is no effect and 10 is complete control
How it was run: as §1

crabgrass = assay: Test B pre/postemergence crabgrass; type: in vivo, Digitaria sanguinalis; conditions: for Plant response rating, Crabgrass: scale of 0 to 10 where 0 is no effect and 10 is complete control
How it was run: as §1

giant foxtail = assay: Test B pre/postemergence giant foxtail; type: in vivo, Setaria faberii; conditions: for Plant response rating, Giant foxtail: scale of 0 to 10 where 0 is no effect and 10 is complete control
How it was run: as §1

morningglory = assay: Test B pre/postemergence morningglory; type: in vivo, Ipomoea hederacea; conditions: for Plant response rating, Morningglory: scale of 0 to 10 where 0 is no effect and 10 is complete control
How it was run: as §1

pigweed = assay: Test B pre/postemergence pigweed; type: in vivo, Amaranthus retroflexus; conditions: for Plant response rating, Redroot pigweed: scale of 0 to 10 where 0 is no effect and 10 is complete control
How it was run: as §1

rape = assay: Test B pre/postemergence rape; type: in vivo, Brassica napus; conditions: for Plant response rating, Rape: scale of 0 to 10 where 0 is no effect and 10 is complete control
How it was run: as §1

soybean = assay: Test B pre/postemergence soybean; type: in vivo, Glycine max; conditions: for Plant response rating, Soybean: scale of 0 to 10 where 0 is no effect and 10 is complete control
How it was run: as §1

sugar beet = assay: Test B pre/postemergence sugar beet; type: in vivo, Beta vulgaris; conditions: for Plant response rating, Sugarbeets: scale of 0 to 10 where 0 is no effect and 10 is complete control
How it was run: as §1

velvetleaf = assay: Test B pre/postemergence velvetleaf; type: in vivo, Abutilon theophrasti; conditions: for Plant response rating, Velvetleaf: scale of 0 to 10 where 0 is no effect and 10 is complete control
How it was run: as §1

wheat = assay: Test B pre/postemergence wheat; type: in vivo, Triticum aestivum; conditions: for Plant response rating, Wheat: scale of 0 to 10 where 0 is no effect and 10 is complete control
How it was run: as §1

wild oat = assay: Test B pre/postemergence wild oat; type: in vivo, Avena fatua; conditions: for Plant response rating, Wild oats: scale of 0 to 10 where 0 is no effect and 10 is complete control
How it was run: as §1

purple nutsedge = assay: Test B pre/postemergence purple nutsedge; type: in vivo, Cyperus rotundus
How it was run: as §1

[1] = Preemergence, Rate 31 g/ha, visual rating, scale 0 to 10 (0 no effect, 10 complete control)
[2] = Rate 62 g/ha, Postemergence, scale 0 to 10 (0 no effect, 10 complete control)
[3] = Postemergence, Rate 31 g/ha, visual rating, scale 0 to 10 (0 no effect, 10 complete control)
[4] = Postemergence, Rate 125 g/ha, scale 0 to 10, 0 is no effect, 10 is complete control
[5] = Postemergence, Rate 250 g/ha, scale 0 to 10
[6] = Preemergence, Rate 250 g/ha, scale 0 to 10, 0 is no effect, 10 is complete control
[7] = Preemergence, Rate 62 g/ha, scale of 0 to 10 where 0 is no effect and 10 is complete control
[8] = Preemergence, Rate 125 g/ha, scale of 0 to 10 where 0 is no effect and 10 is complete control
[9] = Preemergence, Rate 250 g/ha, scale 0 (no effect) to 10 (complete control)
[10] = Rate 62 g/ha, Preemergence, scale 0 to 10
[11] = Rate 500 g/ha, Preemergence, scale 0 to 10 (0 no effect, 10 complete control)

## CC(C)N(C(=O)n1oc(=O)n(C(C)C(=O)N(C)C)c1=O)c1ccc(F)cc1F (stereo not shown) [Compound 481]
bedstraw; [1]
  Bedstraw plant response rating: 0
bedstraw; Preemergence, Rate 62 g/ha
  Plant response rating, Bedstraw: 0
bedstraw; Preemergence, Rate 125 g/ha
  Plant response rating, Bedstraw: 0
bedstraw; [2]
  Bedstraw plant response rating: 0
blackgrass; [3]
  Blackgrass plant response rating: 0
blackgrass; [4]
  Blackgrass plant response rating: 0
blackgrass; [5]
  Blackgrass plant response rating: 2
blackgrass; [1]
  Blackgrass plant response rating: 3
blackgrass; Preemergence, Rate 62 g/ha
  Plant response rating, Blackgrass: 6
blackgrass; Preemergence, Rate 125 g/ha
  Plant response rating, Blackgrass: 6
blackgrass; [6]
  Blackgrass plant response rating: 10
blackgrass; [2]
  Blackgrass plant response rating: 0
Surinam grass; [3]
  B. signalgrass plant response rating: 0
Surinam grass; [4]
  B. signalgrass plant response rating: 0
Surinam grass; Postemergence, Rate 250 g/ha, scale 0 to 10, 0 no effect, 10 complete control
  B. signalgrass plant response rating: 6
Surinam grass; [1]
  B. signalgrass plant response rating: 7
Surinam grass; [7]
  Plant response rating, B. signalgrass: 7
Surinam grass; [8]
  Plant response rating, B. signalgrass: 9
Surinam grass; [6]
  B. signalgrass plant response rating: 9
Surinam grass; [2]
  B. signalgrass plant response rating: 0
cocklebur; [3]
  Cocklebur plant response rating: 0
cocklebur; [4]
  Cocklebur plant response rating: 0
cocklebur; [5]
  Cocklebur plant response rating: 0
cocklebur; [1]
  Cocklebur plant response rating: 0
cocklebur; Preemergence, Rate 62 g/ha
  Plant response rating, Cocklebur: 0
cocklebur; Preemergence, Rate 125 g/ha
  Plant response rating, Cocklebur: 0
cocklebur; [6]
  Cocklebur plant response rating: 0
cocklebur; [2]
  Cocklebur plant response rating: 0
corn; [3]
  Corn plant response rating: 0
corn; [4]
  Corn plant response rating: 3
corn; [5]
  Corn plant response rating: 3
corn; [1]
  Corn plant response rating: 0
corn; Preemergence, Rate 62 g/ha
  Plant response rating, Corn: 0
corn; Preemergence, Rate 125 g/ha
  Plant response rating, Corn: 0
corn; [6]
  Corn plant response rating: 0
corn; [2]
  Corn plant response rating: 0
crabgrass; [3]
  Crabgrass plant response rating: 0
crabgrass; [4]
  Crabgrass plant response rating: 2
crabgrass; [5]
  Crabgrass plant response rating: 2
crabgrass; [1]
  Crabgrass plant response rating: 7
crabgrass; Preemergence, Rate 62 g/ha
  Plant response rating, Crabgrass: 7
crabgrass; Preemergence, Rate 125 g/ha
  Plant response rating, Crabgrass: 8
crabgrass; [6]
  Crabgrass plant response rating: 8
crabgrass; [2]
  Crabgrass plant response rating: 0
Giant foxtail; [3]
  Giant foxtail plant response rating: 0
Giant foxtail; [4]
  Giant foxtail plant response rating: 2
Giant foxtail; [5]
  Giant foxtail plant response rating: 8
Giant foxtail; [1]
  Giant foxtail plant response rating: 8
Giant foxtail; Preemergence, Rate 62 g/ha
  Plant response rating, Giant foxtail: 9
Giant foxtail; Preemergence, Rate 125 g/ha
  Plant response rating, Giant foxtail: 9
Giant foxtail; [6]
  Giant foxtail plant response rating: 9
Giant foxtail; [2]
  Giant foxtail plant response rating: 2
morningglory; [3]
  Morningglory plant response rating: 0
morningglory; [4]
  Morningglory plant response rating: 0
morningglory; [5]
  Morningglory plant response rating: 2
morningglory; Preemergence, Rate 62 g/ha
  Plant response rating, Morningglory: 0
morningglory; Preemergence, Rate 125 g/ha
  Plant response rating, Morningglory: 0
morningglory; [6]
  Morningglory plant response rating: 0
morningglory; [2]
  Morningglory plant response rating: 0
pigweed; [3]
  Redroot pigweed plant response rating: 0
pigweed; [4]
  Redroot pigweed plant response rating: 0
pigweed; [5]
  Redroot pigweed plant response rating: 0
pigweed; Preemergence, Rate 62 g/ha
  Plant response rating, Redroot pigweed: 0
pigweed; Preemergence, Rate 125 g/ha
  Plant response rating, Redroot pigweed: 0
pigweed; [6]
  Redroot pigweed plant response rating: 3
pigweed; [2]
  Redroot pigweed plant response rating: 0
rape; [3]
  Rape plant response rating: 0
rape; [4]
  Rape plant response rating: 0
rape; [5]
  Rape plant response rating: 0
rape; Preemergence, Rate 62 g/ha
  Plant response rating, Rape: 0
rape; Preemergence, Rate 125 g/ha
  Plant response rating, Rape: 0
rape; [6]
  Rape plant response rating: 0
rape; [2]
  Rape plant response rating: 0
soybean; [3]
  Soybean plant response rating: 4
soybean; [4]
  Soybean plant response rating: 4
soybean; [5]
  Soybean plant response rating: 4
soybean; Preemergence, Rate 62 g/ha
  Plant response rating, Soybean: 0
soybean; Preemergence, Rate 125 g/ha
  Plant response rating, Soybean: 0
soybean; [6]
  Soybean plant response rating: 0
soybean; [2]
  Soybean plant response rating: 4
Sugar beet; [3]
  Sugarbeets plant response rating: 0
Sugar beet; [4]
  Sugarbeets plant response rating: 0
Sugar beet; [5]
  Sugarbeets plant response rating: 0
Sugar beet; Preemergence, Rate 62 g/ha
  Plant response rating, Sugarbeets: 0
Sugar beet; Preemergence, Rate 125 g/ha
  Plant response rating, Sugarbeets: 0
Sugar beet; [6]
  Sugarbeets plant response rating: 2
Sugar beet; [2]
  Sugarbeets plant response rating: 0
velvetleaf; [3]
  Velvetleaf plant response rating: 0
velvetleaf; [4]
  Velvetleaf plant response rating: 0
velvetleaf; [5]
  Velvetleaf plant response rating: 0
velvetleaf; Preemergence, Rate 62 g/ha
  Plant response rating, Velvetleaf: 0
velvetleaf; Preemergence, Rate 125 g/ha
  Plant response rating, Velvetleaf: 0
velvetleaf; [6]
  Velvetleaf plant response rating: 0
velvetleaf; [2]
  Velvetleaf plant response rating: 0
wheat; [3]
  Wheat plant response rating: 0
wheat; [4]
  Wheat plant response rating: 0
wheat; [5]
  Wheat plant response rating: 0
wheat; Preemergence, Rate 62 g/ha
  Plant response rating, Wheat: 0
wheat; Preemergence, Rate 125 g/ha
  Plant response rating, Wheat: 3
wheat; [6]
  Wheat plant response rating: 2
wheat; [2]
  Wheat plant response rating: 0
Wild oat; [3]
  Wild oats plant response rating: 0
Wild oat; [4]
  Wild oats plant response rating: 0
Wild oat; [5]
  Wild oats plant response rating: 0
Wild oat; Preemergence, Rate 62 g/ha
  Plant response rating, Wild oats: 4
Wild oat; Preemergence, Rate 125 g/ha
  Plant response rating, Wild oats: 6
Wild oat; [6]
  Wild oats plant response rating: 8
Wild oat; [2]
  Wild oats plant response rating: 0
Purple nutsedge; [3]
  Nutsedge plant response rating: 0
Purple nutsedge; [5]
  Nutsedge plant response rating: 0
Purple nutsedge; [8]
  Plant response rating, Nutsedge: 4
Purple nutsedge; [6]
  Nutsedge plant response rating: 6
Purple nutsedge; [2]
  Nutsedge plant response rating: 0

## COCC(OC)n1c(=O)on(C(=O)N(c2ccc(F)cc2F)C(C)C)c1=O (stereo not shown) [Compound 738]
bedstraw; Preemergence, Rate 125 g/ha
  Plant response rating, Bedstraw: 0
bedstraw; [9]
  Bedstraw plant response rating: 0
bedstraw; [10]
  Bedstraw plant response rating: 0
bedstraw; [11]
  Bedstraw plant response rating: 0
blackgrass; Preemergence, Rate 125 g/ha
  Plant response rating, Blackgrass: 10
blackgrass; [9]
  Blackgrass plant response rating: 10
blackgrass; [10]
  Blackgrass plant response rating: 8
blackgrass; [11]
  Blackgrass plant response rating: 10
Surinam grass; [7]
  B. signalgrass plant response rating: 6
Surinam grass; [8]
  Plant response rating, B. signalgrass: 9
Surinam grass; [9]
  B. signalgrass plant response rating: 10
Surinam grass; [11]
  B. signalgrass plant response rating: 10
cocklebur; Preemergence, Rate 125 g/ha
  Plant response rating, Cocklebur: 0
cocklebur; [9]
  Cocklebur plant response rating: 0
cocklebur; [10]
  Cocklebur plant response rating: 0
cocklebur; [11]
  Cocklebur plant response rating: 0
corn; Preemergence, Rate 125 g/ha
  Plant response rating, Corn: 4
corn; [9]
  Corn plant response rating: 7
corn; [10]
  Corn plant response rating: 0
corn; [11]
  Corn plant response rating: 9
crabgrass; Preemergence, Rate 125 g/ha
  Plant response rating, Crabgrass: 9
crabgrass; [9]
  Crabgrass plant response rating: 9
crabgrass; [10]
  Crabgrass plant response rating: 8
crabgrass; [11]
  Crabgrass plant response rating: 10
Giant foxtail; Preemergence, Rate 125 g/ha
  Plant response rating, Giant foxtail: 9
Giant foxtail; [9]
  Giant foxtail plant response rating: 10
Giant foxtail; [10]
  Giant foxtail plant response rating: 8
Giant foxtail; [11]
  Giant foxtail plant response rating: 10
morningglory; Preemergence, Rate 125 g/ha
  Plant response rating, Morningglory: 1
morningglory; [9]
  Morningglory plant response rating: 2
morningglory; [10]
  Morningglory plant response rating: 1
morningglory; [11]
  Morningglory plant response rating: 4
pigweed; Preemergence, Rate 125 g/ha
  Plant response rating, Redroot pigweed: 7
pigweed; [9]
  Redroot pigweed plant response rating: 8
pigweed; [10]
  Redroot pigweed plant response rating: 6
pigweed; [11]
  Redroot pigweed plant response rating: 8
rape; Preemergence, Rate 125 g/ha
  Plant response rating, Rape: 5
rape; [9]
  Rape plant response rating: 6
rape; [10]
  Rape plant response rating: 2
rape; [11]
  Rape plant response rating: 8
soybean; Preemergence, Rate 125 g/ha
  Plant response rating, Soybean: 0
soybean; [9]
  Soybean plant response rating: 0
soybean; [10]
  Soybean plant response rating: 0
soybean; [11]
  Soybean plant response rating: 0
Sugar beet; Preemergence, Rate 125 g/ha
  Plant response rating, Sugarbeets: 6
Sugar beet; [9]
  Sugarbeets plant response rating: 6
Sugar beet; [10]
  Sugarbeets plant response rating: 3
Sugar beet; [11]
  Sugarbeets plant response rating: 8
velvetleaf; Preemergence, Rate 125 g/ha
  Plant response rating, Velvetleaf: 1
velvetleaf; [9]
  Velvetleaf plant response rating: 6
velvetleaf; [10]
  Velvetleaf plant response rating: 0
velvetleaf; [11]
  Velvetleaf plant response rating: 8
wheat; Preemergence, Rate 125 g/ha
  Plant response rating, Wheat: 4
wheat; [9]
  Wheat plant response rating: 5
wheat; [10]
  Wheat plant response rating: 2
wheat; [11]
  Wheat plant response rating: 8
Wild oat; Preemergence, Rate 125 g/ha
  Plant response rating, Wild oats: 9
Wild oat; [9]
  Wild oats plant response rating: 10
Wild oat; [10]
  Wild oats plant response rating: 4
Wild oat; [11]
  Wild oats plant response rating: 10
Purple nutsedge; [9]
  Nutsedge plant response rating: 4
Purple nutsedge; [11]
  Nutsedge plant response rating: 8
